Assay results published in US20050266512A1, “Detection of proteases and screening for protease inhibitors” (priority 2000, published 2005).

System: horse erythrocytes
Assay: Hemolytic plate assay (erythrocyte lysis, decrease in absorbance)
Type: cell-based
Conditions: FIG. 1
Protocol: The HIV-1 proaerolysin variant generated in EXAMPLE 3 was incubated with varying concentrations of an HIV protease-containing sample in a microtiter plate (HIV-1 protease obtained from BACHEM, Torrance, Calif.). The HIV-1 proaerolysin variant (1.5×10^−6 M) was diluted 1:16 in PBS to a final volume of 100 μl and added to the first column of wells of a 96 well plate. Various concentrations of HIV-protease containing samples, ranging from 10 to 500 ng of HIV-1 protease in a final volume of 100 μl, were added to each of the 8 wells of the first column of the microtiter plate, and the plate incubated for four hours.
After incubation, the samples were serially diluted 1:2 by adding 100 μl of PBS to the first column of wells, mixing and transferring 100 μl sequentially to each of the wells in every row. Then, 100 μl of washed horse erythrocytes were added to all wells so that the final erythrocyte concentration was 0.4%. […]

| Substance | absorbance (erythrocyte lysis) (native proaerolysin activated with trypsin) | absorbance (erythrocyte lysis) (HIV variant of proaerolysin activated with HIV protease, absorbance at 600 nm, listed as HIV variant of proaerolysin) | absorbance (erythrocyte lysis) (HIV variant of proaerolysin activated with HIV protease, absorbance at 600 nm, listed as proaerolysin variant) |
| --- | --- | --- | --- |
| native proaerolysin: precursor form of the aerolysin toxin, a 52 kDa protein produced by bacteria in the genus Aeromonas | decrease in absorbance |  |  |
| HIV-1 proaerolysin variant: proaerolysin variant in which the normal activation sequence KVRRAR was replaced with the HIV-1 protease sensitive sequence QNYPIV |  | decrease in absorbance | lysis of the erythrocytes |
